In patent publication US6713250B1, “Identification of human allergens and T-lymphocyte antigens in vitro” (The Research Foundation of State University of New York, priority 1997, dated 2004):
Values joined by “and” are separate entries in the source; they are usually repeats but may differ in a detail not shown here. Identical values can stand only once. Marks after values point to notes of the source that are not given here.

What was measured:
[1] = tested on: human naive T-cells (PBMC); test: Primary in vitro sensitization culture of PBMC with or without mitomycin C treated T2 cells, 3H-thymidine uptake; format: cell-based; conditions: for response of PBMC, FIG. 4: PBMC incubated 6 days with mitomycin C treated T2 cells
Protocol: Preparation of peripheral blood mononuclear cells (PBMC). The research protocol was approved by the Committee on Research Involving Human Subjects of SUNY @ Stony Brook. After informed consent, heparinized blood was obtained by venipuncture. PBMC (peripheral blood mononuclear cells, which include lymphocytes and macrophages/monocytes) were prepared from heparinized peripheral blood by density centrifugation over Ficoll/Hypaque (Pharmacia, Piscataway, N.J.). PBMC were then washed 3 times in serum free wash medium consisting of SMEM (Gibco, Grand Island, N.Y.), and mixed (1:1) with AIM V medium (Gibco). At no time did the PBMC contact animal serum. PBMC were counted, and resuspended at 2×10^6 cells/ml in AIM V medium (Gibco).
Preparation and mitomycin C treatment of T2 cells. T2 cells were cultured in AIM V media (Gibco). Prior to treatment, they were washed, counted, and resuspended in AIM V media at 2×10^6 cells/ml. Mitomycin C (Sigma, St Louis, Mo.) was then added at 30 μg/ml for a 2 hour incubation at 37° C. The T2 cells were then washed 4 times in serum free wash media, counted with trypan blue dye exclusion, and resuspended at 1×10^6 cells/ml.
(§1) In vitro sensitization cultures. Cell cultures were performed in 96 well U-bottom trays (Linbro), with a total volume of 0.2 ml/well of AIM V medium (Gibco). PBMC (2×10^6/ml) were first admixed with equal volumes of T2 cells (1×10^6/ml), and 0.1 ml of the cell mixture was added to each well. Test compounds were then added (0.1 ml/well) at twice the desired final concentration. Each well contained 1×10^5 PBMC, 5×10^4 T2 cells, and the test compound. Control wells contained 0.1 ml of media rather than test compound. The final ratio of PBMC to T2 cells was 2:1. There were 6 replicate wells per group. The 96-well trays were then cultured for 6 days at 37° C. in a 7.5% Co2 incubator. After 6 days, 1 μCi of ^3H-thymidine was added to each well. The wells were harvested 18 hours later, and ^3H-thymidine uptake was determined with a scintillation counter (Pharmacia LKB Nuclear, Gaithersburg, Md.).

[2] = tested on: human naive T-cells (PBMC); test: as above; format: cell-based
[3] = tested on: T-cells (E+) and non-T cells (E-); test: In vitro sensitization culture of purified T-cells / non-T cells mixtures with mitomycin C treated T2 cells, 3H-thymidine uptake; format: cell-based, human; conditions: for MEAN/SEM (3H-thymidine uptake) / S.I.: T2 cells YES, paraphenylenediamine 10 μg/ml
Protocol: Purification of T-lymphocytes. Sheep erythrocyte receptor positive (E+) T-cells and negative (E−) non-T-cells were isolated by rosetting followed by centrifugation over a Ficoll-Hypaque gradient and lysis of sheep erythrocytes by ammonium chloride as described (38). The (E+) population was greater than 95% CD3+ as determined by cytofluorgraph analysis (below).
as §1
Lymphocyte proliferation assays are generally the result of T-lymphocyte proliferation. It was confirmed that this was also true of this novel in vitro sensitization system. T-cells (70%) were mixed with irradiated (6,000R) non-T cells (30%) for a test of in vitro sensitization to paraphenylenediamine in the presence of mitomycin C treated T2 cells. In a reciprocal group, non-T cells (70%) were mixed with irradiated T-cells (30%). These cell mixtures were added to the culture system, admixed with mitomycin C treated T2 cells, and paraphenylenediamine. […] The T2 cells are not functioning as antigen presenting cells (which is to be expected since the T2 cells lack antigen presenting Major Histocompatibility Complex antigens HLA-DR and HLA-A,B,C), but rather function as accessory cells.

[4] = PBMC from 4 donors, 6 days with mitomycin C treated T2 cells, each compound 3.3 μM to 60 μM
[5] = T-cells 30% (6,000R), non-T cells 70%
[6] = T-cells 70%, non-T cells 30% (6,000R)
[7] = PBMC + T2 CELLS (mitomycin C treated), paraphenylenediamine 10 μg/ml
[8] = PBMC at 1 × 10^5/well, T2 cells at 5 × 10^4/well, 3 μg/ml
[9] = PBMC 1 × 10^5/well, no T2 cells, 3 μg/ml
[10] = PBMC at 1 × 10^5/well, T2 cells at 1 × 10^5/well, 3 μg/ml
[11] = PBMC, NO T2 CELLS, paraphenylenediamine 10 μg/ml

## CCCCCCCCCCCCOS(=O)(=O)[O-].[Na+] [SDS, sodium dodecyl sulfate]
[1]
  response of PBMC, FIG. 4: negative response
[1]; culture with accessory T2 cells
  induction of a response of naive human T-lymphocytes in the culture system: did not induce a response
[2]; [4]
  donor PBMC that responded, FIG. 2: none

## Oc1ccccc1O [catechol]
[1]
  response of PBMC, FIG. 4: positive response

## Nc1ccc(O)cc1 [p-aminophenol]
[1]
  response of PBMC, FIG. 4: positive response

## Nc1ccc(N)cc1 [paraphenylenediamine]
[3]; [5]
  MEAN/SEM (3H-thymidine uptake): 3096/446
  S.I.: 0.57^
[3]; [6]
  MEAN/SEM (3H-thymidine uptake): 50220/2643
  S.I.: 1.94^e
[3]; T-cells YES, non-T cells NO
  MEAN/SEM (3H-thymidine uptake): 2263/317
  S.I.: 0.67^
[3]; T-cells admixed with T2 cells in the absence of non-T cells
  response to paraphenylenediamine: no response
[3]; group where the T-cells had been irradiated (6,000R), mitomycin C treated T2 cells
  response to paraphenylenediamine: no response
[3]; groups with non-irradiated T-cells, mitomycin C treated T2 cells
  response to paraphenylenediamine: only detected in the groups with non-irradiated T-cells
[1]; [7]
  MEAN (3H-thymidine uptake of 6 replicate wells): 11973
  S.I. (Stimulation index: response to antigen/response to media): 2.09^e
[1]; PBMC admixed with T2 cells at a ratio of 2:1, paraphenylenediamine 3 μg/ml, HIV gp160 P18 peptide 10 μg/ml
  response of naive donor PBMC to antigen: statistically significant response
[1]; [8]
  MEAN dpm (3H-thymidine uptake of 6 replicate wells): 6935 dpm
  S.I. (Stimulation index: response to antigen/response to media): 1.97^c
[1]; [4]
  donor PBMC that responded, FIG. 2: 3/4 and 3
[1]; PBMC from 4 donors, presence or absence of mitomycin C treated T2 cells, 3 μg/ml, 6 days
  response of PBMC (3H-thymidine uptake), FIG. 1: Only in the presence of T2 cells was there a response
[1]
  response of PBMC, FIG. 4: positive response
[2]; [9]
  MEAN dpm (3H-thymidine uptake of 6 replicate wells): 2869 dpm
  S.I. (Stimulation index: response to antigen/response to media): 0.96
[2]; [10]
  MEAN dpm (3H-thymidine uptake of 6 replicate wells): 7856 dpm
  S.I. (Stimulation index: response to antigen/response to media): 1.12
[2]; PBMC from 6 donors, 6 days with mitomycin C treated T2 cells
  donor PBMC that responded, FIG. 3: 3/6
[2]; [11]
  MEAN (3H-thymidine uptake of 6 replicate wells): 3054
  S.I. (Stimulation index: response to antigen/response to media): 1.03^
[2]; absence of T2 cells, paraphenylenediamine 3 μg/ml, HIV gp160 P18 peptide 10 μg/ml
  response of naive donor PBMC to antigen: no response
